The values that follow come from patent US8377944B2, “Thienopyrimidine derivatives” (ASKA Pharmaceutical Co., Ltd., priority 2005, dated 2013).

Experiment [1] deals with T1, human recombinant PDE9 protein (Homo sapiens, UniProt O76083).
T1 construct: made in house; host or cells: COS-1 cells, transient transfection of pcDNA 3.1(+); supernatant of the cell homogenate
As to the kind of experiment: Measurement of PDE9-inhibiting activity. The class given is biochemical. Particulars: human recombinant PDE9, [3H]-cGMP substrate; read-out: Inhibitory Activity (IC50 value) PDE 9. An excerpt:
(1) Measurement of PDE9-Inhibiting Activity:
1) Preparation of Human Recombinant PDE9 Protein
Based on the base sequence of hsPDE9A1 registered with GenBank database (accession No.: AF048837), hsPDE9A1 fragment was amplified by polymerase chain reaction under the following conditions, using the following sequence (Amasham Pharmacia Biotech) as the primer and Human Prostate […] cDNA library (CLONTECH) as the template DNA, with Pfu Turbo DNA polymerase ([…]):
hPDE9-5A primer: […] [SEQ ID NO: 1]
hPDE9-3A primer: […] [SEQ ID NO: 2]
PCR condition: [95° C., 5 min]×1 cycle, [(95° C., 1 min), (58° C., 2 min), (72° C., 3 min)]×25 cycle, [72° C., 10 min]×1 cycle
Thus obtained hsPDE9A1 fragment was given a restricted enzymatic treatment with NheI and NotI, and thereafter inserted into pcDNA 3.1(+) expression vector (Invitrogen) to let it serve as a human PDE9 expression vector.
Human PDE9 expression vector-transformed Escherichia coli was mass incubated to produce a large amount of PDE9 expression vector, which was transiently transfected into COS-1 cells, with LIPOFECTAMINE 2000 Reagent (GIBCO). […]
To 150 μL of buffer B (70 mmol/L Tris-HCl, pH7.5; 16.7 mmol/L MgCl2, 33.3 nmol/L [^3H]-cGMP) solution containing [^3H]-cGMP (specific activity=244.2 GBq/mmol) at a concentration of 33.3 nmol/L, 50 μL of a solution of the compound to be evaluated (formed by dissolving the compound in DMSO and diluting it with distilled water to DMSO concentration of 5%) and 50 μL of the PDE9 protein solution as prepared in the above, as diluted with buffer C (40 mmol/L Tris-HCl, pH7.5, 15 mmol/L benzamidine, 15 mmol/L 2-mercaptoethanol, 1 μg/mL Pepstatin A, 1 μg/mL Leupeptin) by 1,500×, were added under cooling with ice. […] Thereafter [^3H]-guanosine was eluted with 3 mL of 3 mol/L aqueous ammonia and its radiation activity was measured with liquid scintillation counter.
PDE9 inhibition of the tested compound can be calculated by the following formula: […]
From the inhibition ratios at various concentration levels of each tested compound, its IC50 value against PDE9 was determined.

The target in experiment [2] is T2, human recombinant PDE5 protein (Homo sapiens, UniProt O76074).
T2 construct: made in house; host or cells: COS-1 cells, transient transfection of pcDNA 3.1(+); supernatant of the cell homogenate
As to the kind of experiment: Measurement of PDE5-inhibiting activity. The class given is biochemical. Particulars: human recombinant PDE5, [3H]-cGMP substrate; read-out: Inhibitory Activity (IC50 value) PDE 5. An excerpt: (2) Measurement of PDE5-Inhibiting Activity:
1) Preparation of Human Recombinant PDE5 Protein
Based on the base sequence of hsPDE5A1 registered with GenBank database (accession No.: NM_001083), hsPDE5A1 fragment was amplified by polymerase chain reaction under the following conditions, using the following sequence (SIGMA GENOSYS) as the primer and Human Prostate […] cDNA library (CLONTECH) as the template DNA, with KDD plus DNA polymerase (TOYOBO): […]
hPDE5-5′E primer: […] [SEQ ID NO: 3] […]
hPDE5-3′ primer: […] [SEQ ID NO: 4]
PCR condition: [94° C., 2 min]×1 cycle, [(94° C., 30 sec), (65° C., 30 sec), (68° C., 3 min)]×25 cycle, [68° C., 6 min]×1 cycle Thus obtained hsPDE5A1 fragment was given a restricted enzymatic treatment with XBaI and EcoRI, and thereafter inserted into pcDNA 3.1(+) expression vector (Invitrogen) to let it serve as a human PDE5 expression vector.
Human PDE5 expression vector-transformed Escherichia coli was mass incubated to produce a large amount of PDE5 expression vector, which was transiently transfected into COS-1 cells, with LIPOFECTAMINE 2000 Reagent (GIBCO). The cells were homogenized in ice-cooled buffer A and centrifuged at 4° C., 14,000×g for 10 minutes. The supernatant was isolated to provide human recombinant PDE5 protein solution.
2) Measurement of PDE5-Inhibiting Activity
By a method similar to the measurement of PDE9-inhibiting activity, PDE5-inhibiting activity of the test compounds was measured, their inhibition was calculated and IC50 value to PDE5 of each of the compounds was determined. The results are shown in the following Table A, concurrently with the compounds' IC50 values against PDE9.

T1 sequence (O76083 whole entry): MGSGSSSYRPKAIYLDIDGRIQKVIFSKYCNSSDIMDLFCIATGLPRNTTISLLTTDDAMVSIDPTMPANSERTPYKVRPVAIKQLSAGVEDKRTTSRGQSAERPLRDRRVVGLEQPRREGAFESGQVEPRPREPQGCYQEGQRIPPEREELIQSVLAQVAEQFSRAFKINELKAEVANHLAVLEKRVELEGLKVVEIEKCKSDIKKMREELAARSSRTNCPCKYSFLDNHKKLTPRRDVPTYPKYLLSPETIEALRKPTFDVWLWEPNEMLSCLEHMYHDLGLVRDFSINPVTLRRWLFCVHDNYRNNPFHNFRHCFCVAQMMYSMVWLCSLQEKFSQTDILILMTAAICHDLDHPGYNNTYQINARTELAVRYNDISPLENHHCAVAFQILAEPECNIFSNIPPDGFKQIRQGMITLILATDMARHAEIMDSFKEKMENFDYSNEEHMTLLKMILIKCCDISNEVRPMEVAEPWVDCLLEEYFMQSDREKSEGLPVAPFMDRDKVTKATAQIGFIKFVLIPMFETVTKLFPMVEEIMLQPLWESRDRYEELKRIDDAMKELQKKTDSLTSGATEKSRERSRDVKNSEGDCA

Regarding `Cc1c(C(=O)O)sc2nc(Cc3ccc(F)c(Cl)c3)[nH]c(=O)c12` [Example 52, 2-(3-Chloro-4-fluorobenzyl)-5-methyl-4-oxo-3,4-dihydrothieno[2,3-d]pyrimidine-6-carboxylic acid], the results for the IC50 in experiment [1] and in experiment [2] were 38 nM and 3420 nM, respectively.
Consider `Cc1c(C(=O)O)sc2nc(Cc3ccc(Cl)s3)[nH]c(=O)c12` [Example 3, 2-(5-Chlorothiophen-2-ylmethyl)-5-methyl-4-oxo-3,4-dihydrothieno[2,3-d]pyrimidine-6-carboxylic acid], for which the IC50 is 34 nM in experiment [1] and 6900 nM in experiment [2].
For the compound “2-(Cyclopent-1-enylmethyl)-5-methyl-4-thioxo-3,4-dihydrothieno[2,3-d]pyrimidine-6-carboxylic acid and 2-cyclopentylidenemethyl-5-methyl-4-thioxo-3,4-dihydrothieno-[2,3-d]pyrimidine-6-carboxylic acid [Example 117]”, the IC50 in experiment [1] came to 24 nM; in experiment [2] it was 843 nM.

In general, IC50 refers to the midpoint of a concentration-inhibition curve.
